Reference: article PMC4254624 (Biochemical and biophysical research communications, 2014)
Where two headings read alike, the source gives them in different places.

How the values were obtained:
EcSecA intrinsic ATPase [1] = molecular target: T1, EcSecA intrinsic ATPase (Escherichia coli, UniProt P10408); experiment: Intrinsic ATPase activity assay of EcSecA; type: biochemical; details: for Ki: read-out: apparent Ki, intrinsic ATPase; for Km / Vmax: Intrinsic
PaSecA = PaSecA (Pseudomonas aeruginosa, UniProt Q9LCT3); experiment: SecA ion channel activity in Xenopus oocytes; type: cell-based, P. aeruginosa; details: for IC50: read-out: IC50 inhibition of SecA channel activity in oocytes, PaSecA
BsSecA = BsSecA (Bacillus subtilis, UniProt P28366); experiment: SecA ion channel activity in Xenopus oocytes; type: cell-based; details: for IC50: read-out: IC50 inhibition of SecA channel activity in oocytes, BsSecA
BsSecA intrinsic ATPase = BsSecA intrinsic ATPase (Bacillus subtilis, UniProt P28366); experiment: Intrinsic ATPase activity assay of BsSecA; type: biochemical
EcSecA membrane ATPase = EcSecA membrane ATPase (Escherichia coli, UniProt P10408); experiment: Membrane ATPase activity assay of EcSecA with urea-washed BA13 membrane; type: biochemical
EcSecA = EcSecA (Escherichia coli, UniProt P10408); experiment: SecA ion channel activity in Xenopus oocytes; type: cell-based; details: for IC50: read-out: IC50 inhibition of SecA channel activity in oocytes, EcSecA
[2] = molecular target: EcSecA translocation ATPase (Escherichia coli, UniProt P10408); experiment: Translocation ATPase activity assay of EcSecA with BA13 membrane and proOmpA; type: biochemical; details: for Km / Vmax: Translocation
EcSecA intrinsic ATPase [3] = molecular target: T1, EcSecA intrinsic ATPase; details: cited from earlier work
[4] = high ATP concentrations (above 1 mM), non-competitive
[5] = low ATP concentrations (below 0.6 mM), competitive

BsSecA, sequence (P28366 whole entry): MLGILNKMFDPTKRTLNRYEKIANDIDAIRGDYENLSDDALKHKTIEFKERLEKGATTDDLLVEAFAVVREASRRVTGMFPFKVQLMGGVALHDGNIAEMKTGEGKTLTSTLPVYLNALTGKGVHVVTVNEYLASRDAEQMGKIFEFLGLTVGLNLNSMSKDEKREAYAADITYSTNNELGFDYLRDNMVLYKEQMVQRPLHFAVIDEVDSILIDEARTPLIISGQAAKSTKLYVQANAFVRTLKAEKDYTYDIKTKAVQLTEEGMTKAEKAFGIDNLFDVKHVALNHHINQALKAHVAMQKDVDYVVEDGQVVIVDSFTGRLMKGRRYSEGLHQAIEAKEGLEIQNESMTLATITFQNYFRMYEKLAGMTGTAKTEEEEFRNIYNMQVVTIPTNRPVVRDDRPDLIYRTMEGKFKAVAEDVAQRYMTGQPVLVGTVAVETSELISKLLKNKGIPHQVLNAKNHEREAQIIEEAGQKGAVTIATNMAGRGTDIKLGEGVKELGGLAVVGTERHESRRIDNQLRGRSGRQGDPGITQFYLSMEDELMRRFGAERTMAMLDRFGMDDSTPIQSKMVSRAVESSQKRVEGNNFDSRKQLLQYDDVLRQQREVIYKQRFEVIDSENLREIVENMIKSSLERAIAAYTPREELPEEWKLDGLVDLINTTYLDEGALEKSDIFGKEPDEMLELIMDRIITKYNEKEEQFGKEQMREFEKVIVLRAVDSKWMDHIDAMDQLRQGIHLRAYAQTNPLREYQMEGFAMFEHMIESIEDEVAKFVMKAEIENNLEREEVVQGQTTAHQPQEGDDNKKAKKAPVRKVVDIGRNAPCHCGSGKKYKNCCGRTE
EcSecA translocation ATPase, sequence (P10408 whole entry): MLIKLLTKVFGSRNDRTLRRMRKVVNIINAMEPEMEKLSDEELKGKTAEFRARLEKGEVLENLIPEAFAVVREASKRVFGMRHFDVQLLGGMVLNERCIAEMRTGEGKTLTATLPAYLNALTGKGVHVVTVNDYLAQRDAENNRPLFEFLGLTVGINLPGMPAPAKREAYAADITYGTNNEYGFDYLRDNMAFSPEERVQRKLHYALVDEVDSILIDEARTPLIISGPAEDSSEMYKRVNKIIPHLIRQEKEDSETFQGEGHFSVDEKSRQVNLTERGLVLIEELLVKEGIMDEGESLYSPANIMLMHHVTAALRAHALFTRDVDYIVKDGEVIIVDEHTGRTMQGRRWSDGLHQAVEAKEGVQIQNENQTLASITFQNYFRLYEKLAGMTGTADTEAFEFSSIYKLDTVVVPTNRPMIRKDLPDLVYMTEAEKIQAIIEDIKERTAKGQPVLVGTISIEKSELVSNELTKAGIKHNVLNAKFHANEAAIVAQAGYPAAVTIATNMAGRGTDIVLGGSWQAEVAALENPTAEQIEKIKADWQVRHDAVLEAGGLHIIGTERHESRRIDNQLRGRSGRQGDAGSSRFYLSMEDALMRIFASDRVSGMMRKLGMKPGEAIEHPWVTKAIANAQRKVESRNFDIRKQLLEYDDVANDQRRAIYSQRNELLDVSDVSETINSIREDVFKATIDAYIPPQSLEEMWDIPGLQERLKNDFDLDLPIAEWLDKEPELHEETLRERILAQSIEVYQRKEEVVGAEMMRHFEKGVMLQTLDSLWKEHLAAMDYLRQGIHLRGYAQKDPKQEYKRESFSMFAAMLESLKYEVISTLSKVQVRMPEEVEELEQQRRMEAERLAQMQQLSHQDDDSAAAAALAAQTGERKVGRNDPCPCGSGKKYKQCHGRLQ
EcSecA membrane ATPase, sequence (P10408 whole entry): as above
T1 sequence (P10408 whole entry): as above
EcSecA, sequence (P10408 whole entry): as above
PaSecA, sequence (Q9LCT3 whole entry): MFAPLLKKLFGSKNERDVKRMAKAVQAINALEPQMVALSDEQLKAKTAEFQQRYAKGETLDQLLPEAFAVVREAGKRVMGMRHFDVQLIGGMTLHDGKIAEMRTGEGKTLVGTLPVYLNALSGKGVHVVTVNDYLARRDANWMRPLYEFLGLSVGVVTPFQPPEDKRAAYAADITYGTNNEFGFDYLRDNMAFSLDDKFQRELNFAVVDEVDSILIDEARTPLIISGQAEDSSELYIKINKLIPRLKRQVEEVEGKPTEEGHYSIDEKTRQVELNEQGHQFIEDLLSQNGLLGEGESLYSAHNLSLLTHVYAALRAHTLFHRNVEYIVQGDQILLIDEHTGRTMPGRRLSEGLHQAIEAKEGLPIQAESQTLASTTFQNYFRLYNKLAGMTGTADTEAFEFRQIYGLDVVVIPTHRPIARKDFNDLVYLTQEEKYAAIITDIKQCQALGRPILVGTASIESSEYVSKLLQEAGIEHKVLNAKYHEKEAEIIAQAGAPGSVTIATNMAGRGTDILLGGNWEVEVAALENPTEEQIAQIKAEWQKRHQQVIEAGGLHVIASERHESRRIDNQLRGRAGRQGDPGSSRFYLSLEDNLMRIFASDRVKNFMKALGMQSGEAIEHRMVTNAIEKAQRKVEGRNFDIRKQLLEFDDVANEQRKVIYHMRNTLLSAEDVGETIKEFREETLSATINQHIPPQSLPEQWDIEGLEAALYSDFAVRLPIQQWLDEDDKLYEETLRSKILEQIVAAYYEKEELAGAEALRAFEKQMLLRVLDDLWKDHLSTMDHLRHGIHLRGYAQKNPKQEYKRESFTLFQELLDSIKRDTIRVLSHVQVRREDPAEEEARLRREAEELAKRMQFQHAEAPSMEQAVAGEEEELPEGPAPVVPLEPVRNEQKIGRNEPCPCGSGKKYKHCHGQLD
BsSecA intrinsic ATPase, sequence (P28366 whole entry): as the sequence (P28366 whole entry) above

Question: For `O.O=C([O-])c1ccccc1-c1c2cc(I)c(=O)c(I)c-2oc2c(I)c([O-])c(I)cc12.[Na+].[Na+]` [EB, Erythrocin B], which “mechanism of inhibition of intrinsic ATPase versus ATP” value (EcSecA intrinsic ATPase [1]; high ATP concentrations) is on record?
Answer: non-competitively

Question: And the “mechanism of inhibition of intrinsic ATPase versus ATP” value (EcSecA intrinsic ATPase [1]; low ATP concentrations)?
Answer: competitively

Question: What about the Ki (EcSecA intrinsic ATPase [1]; [4]) of the same molecule?
Answer: 34.3 ± 8.08 µM

Question: And the Ki (EcSecA intrinsic ATPase [1]; [5])?
Answer: 4.06 ± 0.32 µM

Question: For `O=C1OC2(c3cc(I)c(O)c(I)c3Oc3c2cc(I)c(O)c3I)c2c(Cl)c(Cl)c(Cl)c(Cl)c21` [RB, Rose Bengal], which “mechanism of inhibition of liposome channel activity with ATP” value (“mechanism of inhibition … with ATP” for short) (PaSecA; PaSecA-liposomes in oocytes) is on record?
Answer: non-competitive inhibition

Question: What about the IC50 (PaSecA; BA13 memb) of the same molecule?
Answer: 5.1 ± 0.2 µM

Question: And the IC50 (PaSecA; L+SecYEG +SecDF•C)?
Answer: 2 ± 0.3 µM

Question: And the IC50 (PaSecA; Lipo)?
Answer: 0.3 ± 0.2 µM

Question: And the IC50 (PaSecA; RE-13 memb +SecYEG)?
Answer: 5.1 ± 0.2 µM

Question: What about the IC50 (PaSecA; RE-13 memb +SecYEG-DF•C) of the same molecule?
Answer: 5.1 ± 0.1 µM

Question: What about the “mechanism of inhibition … with ATP” value (BsSecA; BsSecA-liposomes in oocytes) of the same molecule?
Answer: non-competitive inhibition

Question: What about the IC50 (BsSecA; BA13 memb) of the same molecule?
Answer: 5.8 ± 0.3 µM

Question: And the IC50 (BsSecA; L+SecYEG +SecDF•C)?
Answer: 4.5 ± 0.2 µM

Question: What about the IC50 (BsSecA; RE-13 memb +SecYEG-DF•C) of the same molecule?
Answer: 5.2 ± 0.3 µM

Question: What about the “mechanism of inhibition of intrinsic ATPase” value (BsSecA intrinsic ATPase) of the same molecule?
Answer: two-site inhibition depending on the concentration of ATP

Question: What about the Km (EcSecA intrinsic ATPase [1]; High [ATP], RB 20 μM) of the same molecule?
Answer: 1680 µM

Question: And the Vmax (EcSecA intrinsic ATPase [1]; High [ATP], RB 20 μM)?
Answer: 6.08 molePi·moleSecA^−1min^−1

Question: And the Km (EcSecA intrinsic ATPase [1]; High [ATP], RB 40 μM)?
Answer: 1680 µM

Question: What about the Vmax (EcSecA intrinsic ATPase [1]; High [ATP], RB 40 μM) of the same molecule?
Answer: 3.99 molePi·moleSecA^−1min^−1

Question: What about the Km (EcSecA intrinsic ATPase [1]; Low [ATP], RB 20 μM) of the same molecule?
Answer: 250 µM

Question: What about the Vmax (EcSecA intrinsic ATPase [1]; Low [ATP], RB 20 μM) of the same molecule?
Answer: 3.07±0.16 molePi·moleSecA^−1min^−1

Question: What about the Km (EcSecA intrinsic ATPase [1]; Low [ATP], RB 40 μM) of the same molecule?
Answer: 460 µM

Question: What about the Vmax (EcSecA intrinsic ATPase [1]; Low [ATP], RB 40 μM) of the same molecule?
Answer: 3.07±0.16 molePi·moleSecA^−1min^−1

Question: What about the “mechanism of inhibition of intrinsic ATPase versus ATP” value (EcSecA intrinsic ATPase [1]; high ATP concentrations) of the same molecule?
Answer: non-competitive inhibitor

Question: And the “mechanism of inhibition of intrinsic ATPase versus ATP” value (EcSecA intrinsic ATPase [1]; low ATP concentrations)?
Answer: competitive inhibitor

Question: What about the Ki (EcSecA intrinsic ATPase [1]; [4]) of the same molecule?
Answer: 57.1 ± 3.37 µM

Question: And the Ki (EcSecA intrinsic ATPase [1]; [5])?
Answer: 22.4 ± 3.33 µM

Question: And the “mechanism of inhibition of membrane ATPase” value (EcSecA membrane ATPase)?
Answer: mixed-mechanism

Question: And the Vmax (EcSecA membrane ATPase; Membrane, RB 2 μM)?
Answer: 13.61 molePi·moleSecA^−1min^−1

Question: And the Km (EcSecA membrane ATPase; Membrane, RB 4 μM)?
Answer: 310 µM

Question: And the Vmax (EcSecA membrane ATPase; Membrane, RB 4 μM)?
Answer: 8.18 molePi·moleSecA^−1min^−1

Question: And the Ki (EcSecA membrane ATPase; read-out: average Ki, membrane ATPase, mixed-mechanism)?
Answer: 1.42 ± 0.22 µM

Question: And the “mechanism of inhibition of channel activity” value (EcSecA; EcSecA-SecYEG-SecDF•YajC liposomes in oocytes)?
Answer: non-competitive inhibition pattern

Question: What about the “mechanism of inhibition … with ATP” value (EcSecA; EcSecA-liposomes in oocytes) of the same molecule?
Answer: non-competitive inhibition

Question: What about the IC50 (EcSecA; BA13 memb) of the same molecule?
Answer: 4.7 ± 0.1 µM

Question: What about the IC50 (EcSecA; L+SecYEG +SecDF•C) of the same molecule?
Answer: 3.8 ± 0.3 µM

Question: And the IC50 (EcSecA; RE-13 memb +SecYEG-DF•C)?
Answer: 4.4 ± 0.1 µM

Question: And the Km ([2]; RB 0.75 μM)?
Answer: 180 µM

Question: And the Vmax ([2]; RB 0.75 μM)?
Answer: 23.42 molePi·moleSecA^−1min^−1

Question: What about the Km ([2]; RB 1 μM) of the same molecule?
Answer: 180 µM

Question: What about the Vmax ([2]; RB 1 μM) of the same molecule?
Answer: 15.06 molePi·moleSecA^−1min^−1

Question: What about the “mechanism of inhibition of translocation ATPase” value ([2]; broad range of ATP concentrations) of the same molecule?
Answer: only non-competitively

Question: And the Ki ([2]; read-out: Ki, translocation ATPase, non-competitive, broad range of ATP concentrations)?
Answer: 0.43 ± 0.02 µM

Question: Which “effect on SecA intrinsic ATPase activity” value (EcSecA intrinsic ATPase [3]) does the source give for `[N-]=[N+]=[N-].[Na+]` [azide, sodium azide] here?
Answer: does not affect
